Test results: PubChem BioAssay (NCI)
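Five compound concentrations were applied to cells in 96-well plates for 48 hours; endpoints were derived by simple linear interpolation of the resulting dose-response curve. At the GI50, growth is halved. The concentration for full growth arrest is given as TGI.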

Experiments:
Experiment in all cases: NCI anticancer screen, dose series, 48 h
U251 CNS = tested on: U251 CNS
HCT-116 colon = tested on: HCT-116 colon
HOP-62 NSCLC = tested on: HOP-62 NSCLC
NCI-H522 lung = tested on: NCI-H522 lung
NCI-H226 lung = tested on: NCI-H226 lung
HS 578T breast = tested on: HS 578T breast
SNB-75 CNS = tested on: SNB-75 CNS
NCI-H460 lung = tested on: NCI-H460 lung
UACC-62 melanoma = tested on: UACC-62 melanoma
NCI/ADR-RES ovarian = tested on: NCI/ADR-RES ovarian
HT29 colon = tested on: HT29 colon
SF-268 CNS = tested on: SF-268 CNS
MALME-3M melanoma = tested on: MALME-3M melanoma
HCT-15 colon = tested on: HCT-15 colon
OVCAR-3 ovarian = tested on: OVCAR-3 ovarian
ACHN renal = tested on: ACHN renal
SW-620 colon = tested on: SW-620 colon
A549 NSCLC = tested on: A549 NSCLC
TK-10 renal = tested on: TK-10 renal
HCC-2998 colon = tested on: HCC-2998 colon
COLO 205 colon = tested on: COLO 205 colon
MDA-MB-231 breast = tested on: MDA-MB-231 breast
SK-MEL-2 melanoma = tested on: SK-MEL-2 melanoma
SR leukemia = tested on: SR leukemia
M14 melanoma = tested on: M14 melanoma
DU-145 prostate = tested on: DU-145 prostate
SN12C renal = tested on: SN12C renal
OVCAR-5 ovarian = tested on: OVCAR-5 ovarian
MOLT-4 leukemia = tested on: MOLT-4 leukemia
SF-539 CNS = tested on: SF-539 CNS
CAKI-1 renal = tested on: CAKI-1 renal
SK-OV-3 ovarian = tested on: SK-OV-3 ovarian
HOP-92 NSCLC = tested on: HOP-92 NSCLC
IGROV1 ovarian = tested on: IGROV1 ovarian
PC-3 prostate = tested on: PC-3 prostate
OVCAR-8 ovarian = tested on: OVCAR-8 ovarian
SNB-19 CNS = tested on: SNB-19 CNS
K-562 leukemia = tested on: K-562 leukemia
MDA-MB-435 = tested on: MDA-MB-435
LOX IMVI melanoma = tested on: LOX IMVI melanoma
UO-31 renal = tested on: UO-31 renal
BT-549 breast = tested on: BT-549 breast
UACC-257 melanoma = tested on: UACC-257 melanoma
EKVX NSCLC = tested on: EKVX NSCLC
HL-60(TB) leukemia = tested on: HL-60(TB) leukemia
786-0 renal = tested on: 786-0 renal
SF-295 CNS = tested on: SF-295 CNS
SK-MEL-28 melanoma = tested on: SK-MEL-28 melanoma
CCRF-CEM leukemia = tested on: CCRF-CEM leukemia
T-47D breast = tested on: T-47D breast
SK-MEL-5 melanoma = tested on: SK-MEL-5 melanoma
RPMI-8226 leukemia = tested on: RPMI-8226 leukemia
NCI-H23 lung = tested on: NCI-H23 lung
KM12 colon = tested on: KM12 colon
RXF 393 renal = tested on: RXF 393 renal
OVCAR-4 ovarian = tested on: OVCAR-4 ovarian
A498 renal = tested on: A498 renal

S=C(Nc1ccc(Cl)cc1)Nc1ccc(-c2nc3ccccc3s2)cc1
GI50 (U251 CNS): 19 µM | TGI (U251 CNS): > 100 µM | GI50 (HCT-116 colon): 13.5 µM | TGI (HCT-116 colon): 26.3 µM | GI50 (HOP-62 NSCLC): 20.1 µM | TGI (HOP-62 NSCLC): 41 µM | GI50 (NCI-H522 lung): 5.61 µM | TGI (NCI-H522 lung): 19.6 µM | GI50 (NCI-H226 lung): 17.9 µM | TGI (NCI-H226 lung): 47.4 µM | GI50 (HS 578T breast): 16.4 µM | TGI (HS 578T breast): 39.2 µM | GI50 (SNB-75 CNS): 13.8 µM | TGI (SNB-75 CNS): 35.5 µM | GI50 (NCI-H460 lung): 13.9 µM | TGI (NCI-H460 lung): 33.4 µM | GI50 (UACC-62 melanoma): 10.4 µM | TGI (UACC-62 melanoma): 24.8 µM | GI50 (NCI/ADR-RES ovarian): 17.5 µM | TGI (NCI/ADR-RES ovarian): 36.6 µM | GI50 (HT29 colon): 17.2 µM | TGI (HT29 colon): 39.2 µM | GI50 (SF-268 CNS): 13.8 µM | TGI (SF-268 CNS): 32 µM | GI50 (MALME-3M melanoma): 15.6 µM | TGI (MALME-3M melanoma): 46.4 µM | GI50 (HCT-15 colon): 23.5 µM | TGI (HCT-15 colon): > 100 µM | GI50 (OVCAR-3 ovarian): 9.93 µM | TGI (OVCAR-3 ovarian): 34.1 µM | GI50 (ACHN renal): 15.4 µM | TGI (ACHN renal): 45.4 µM | GI50 (SW-620 colon): 17.9 µM | TGI (SW-620 colon): 35.4 µM | GI50 (A549 NSCLC): 14.9 µM | TGI (A549 NSCLC): 32.2 µM | GI50 (TK-10 renal): 15.1 µM | TGI (TK-10 renal): 44.5 µM | GI50 (HCC-2998 colon): 14.7 µM | TGI (HCC-2998 colon): 27.8 µM | GI50 (COLO 205 colon): 18.7 µM | TGI (COLO 205 colon): 53.7 µM | GI50 (MDA-MB-231 breast): 15.3 µM | TGI (MDA-MB-231 breast): 34.3 µM | GI50 (SK-MEL-2 melanoma): 21 µM | TGI (SK-MEL-2 melanoma): 40.2 µM | GI50 (SR leukemia): 4.47 µM | TGI (SR leukemia): 27.4 µM | GI50 (M14 melanoma): 14.3 µM | TGI (M14 melanoma): 28 µM | GI50 (DU-145 prostate): 13.6 µM | TGI (DU-145 prostate): 30 µM | GI50 (SN12C renal): 15.4 µM | TGI (SN12C renal): 35 µM | GI50 (OVCAR-5 ovarian): 20.8 µM | TGI (OVCAR-5 ovarian): 44 µM | TGI (MOLT-4 leukemia): > 100 µM | GI50 (SF-539 CNS): 17.5 µM | TGI (SF-539 CNS): 34 µM | GI50 (CAKI-1 renal): 10.8 µM | TGI (CAKI-1 renal): 28 µM | GI50 (SK-OV-3 ovarian): 24.9 µM | TGI (SK-OV-3 ovarian): 63.1 µM | GI50 (HOP-92 NSCLC): 17.2 µM | TGI (HOP-92 NSCLC): 45.5 µM | GI50 (IGROV1 ovarian): 16.8 µM | TGI (IGROV1 ovarian): 37.9 µM | GI50 (PC-3 prostate): 14.3 µM | TGI (PC-3 prostate): 54.9 µM | GI50 (OVCAR-8 ovarian): 17.9 µM | TGI (OVCAR-8 ovarian): 41.7 µM | GI50 (SNB-19 CNS): 19 µM | TGI (SNB-19 CNS): 69.6 µM | GI50 (K-562 leukemia): 7.28 µM | TGI (K-562 leukemia): 47.2 µM | GI50 (MDA-MB-435): 13.4 µM | TGI (MDA-MB-435): 29.8 µM | GI50 (LOX IMVI melanoma): 24.3 µM | TGI (LOX IMVI melanoma): > 100 µM | GI50 (UO-31 renal): 11.8 µM | TGI (UO-31 renal): 25.2 µM | GI50 (BT-549 breast): 26.3 µM | TGI (BT-549 breast): 61.5 µM | GI50 (UACC-257 melanoma): 20.3 µM | TGI (UACC-257 melanoma): 44.9 µM | GI50 (EKVX NSCLC): 15.1 µM | TGI (EKVX NSCLC): 42.9 µM | GI50 (HL-60(TB) leukemia): 8.22 µM | TGI (HL-60(TB) leukemia): > 100 µM | GI50 (786-0 renal): 16.3 µM | TGI (786-0 renal): 30.2 µM | GI50 (SF-295 CNS): 16.1 µM | TGI (SF-295 CNS): 40.6 µM | GI50 (SK-MEL-28 melanoma): 19.1 µM | TGI (SK-MEL-28 melanoma): 44.2 µM | GI50 (CCRF-CEM leukemia): 15.6 µM | TGI (CCRF-CEM leukemia): 54.8 µM | GI50 (T-47D breast): 5.19 µM | TGI (T-47D breast): 38.9 µM | GI50 (SK-MEL-5 melanoma): 11 µM | TGI (SK-MEL-5 melanoma): 22.9 µM | GI50 (RPMI-8226 leukemia): 20.9 µM | TGI (RPMI-8226 leukemia): 64.5 µM | GI50 (NCI-H23 lung): 14.1 µM | TGI (NCI-H23 lung): 27.3 µM | GI50 (KM12 colon): 15 µM | TGI (KM12 colon): 49.1 µM | GI50 (RXF 393 renal): 16.6 µM | TGI (RXF 393 renal): 37.1 µM | GI50 (OVCAR-4 ovarian): 14.4 µM | TGI (OVCAR-4 ovarian): 69.4 µM

Cc1cc(Nc2ccc(NC(=O)c3ccc(Nc4ccnc5ccccc45)cc3)cc2)nc(N)n1
GI50 (NCI-H226 lung): 2.42 µM | TGI (NCI-H226 lung): 5 µM | GI50 (HS 578T breast): 5.79 µM | TGI (HS 578T breast): > 100 µM | GI50 (SNB-75 CNS): 12.2 µM | TGI (SNB-75 CNS): 43 µM | GI50 (UACC-62 melanoma): 2.33 µM | TGI (UACC-62 melanoma): 5.84 µM | GI50 (NCI/ADR-RES ovarian): > 100 µM | TGI (NCI/ADR-RES ovarian): > 100 µM | GI50 (MALME-3M melanoma): 2 µM | TGI (MALME-3M melanoma): 4.65 µM | GI50 (HCT-15 colon): 6.16 µM | TGI (HCT-15 colon): > 100 µM | GI50 (OVCAR-3 ovarian): 1.43 µM | TGI (OVCAR-3 ovarian): 4.26 µM | GI50 (ACHN renal): 21.6 µM | TGI (ACHN renal): > 100 µM | GI50 (SW-620 colon): 1.37 µM | TGI (SW-620 colon): > 100 µM | GI50 (A549 NSCLC): 14.6 µM | TGI (A549 NSCLC): > 100 µM | GI50 (TK-10 renal): 19.8 µM | TGI (TK-10 renal): > 100 µM | GI50 (SK-MEL-2 melanoma): 5.56 µM | TGI (SK-MEL-2 melanoma): 94.7 µM | GI50 (M14 melanoma): 7.62 µM | TGI (M14 melanoma): > 100 µM | GI50 (DU-145 prostate): 2.03 µM | TGI (DU-145 prostate): 5.16 µM | GI50 (SN12C renal): 2.13 µM | TGI (SN12C renal): 5.02 µM | GI50 (OVCAR-5 ovarian): 3.4 µM | TGI (OVCAR-5 ovarian): 37.5 µM | GI50 (A498 renal): 5.13 µM | TGI (A498 renal): > 100 µM | GI50 (CAKI-1 renal): > 100 µM | TGI (CAKI-1 renal): > 100 µM | GI50 (SK-OV-3 ovarian): 7.15 µM | TGI (SK-OV-3 ovarian): 54.8 µM | GI50 (HOP-92 NSCLC): 2.13 µM | TGI (HOP-92 NSCLC): 6.59 µM | GI50 (IGROV1 ovarian): 15 µM | TGI (IGROV1 ovarian): 63.5 µM | GI50 (MDA-MB-435): 2.93 µM | TGI (MDA-MB-435): > 100 µM | GI50 (UO-31 renal): 50.9 µM | TGI (UO-31 renal): > 100 µM | GI50 (BT-549 breast): 2.25 µM | TGI (BT-549 breast): 5.74 µM | GI50 (UACC-257 melanoma): 21.8 µM | TGI (UACC-257 melanoma): 87.7 µM | GI50 (EKVX NSCLC): 2.95 µM | TGI (EKVX NSCLC): > 100 µM | GI50 (HL-60(TB) leukemia): 7.31 µM | TGI (HL-60(TB) leukemia): > 100 µM | GI50 (786-0 renal): 3.06 µM | TGI (786-0 renal): > 100 µM | GI50 (SF-295 CNS): 4.81 µM | TGI (SF-295 CNS): 39.6 µM | GI50 (SK-MEL-5 melanoma): 5.23 µM | TGI (SK-MEL-5 melanoma): 49.9 µM | GI50 (RPMI-8226 leukemia): > 100 µM | TGI (RPMI-8226 leukemia): > 100 µM | GI50 (RXF 393 renal): 2.76 µM | TGI (RXF 393 renal): 9.82 µM
